Data on 9 compounds can be found in PubChem BioAssay (NCI).

Where “and” joins values, the source holds several entries; their conditions need not be identical. Equal entries are not always repeated.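 Where inhibition never reached the appropriate level, the endpoint shown equals the highest concentration tested. Otherwise, values were interpolated linearly from a five-concentration, 48-hour dose response in 96-well plates. Abbreviation: GI50, concentration required for 50% inhibition of growth. TGI marks complete inhibition of growth.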

Some test systems named below: DU-145 prostate; HCC-2998 colon; KM12 colon; MDA-MB-231 breast; NCI-H226 lung; NCI-H23 lung; OVCAR-4 ovarian; OVCAR-8 ovarian; SR leukemia; U251 CNS.
Common to all, as to assay: inhibition of tumour cell growth, NCI panel, 48 h

Consider `Nc1nc(-c2ccccc2Cl)cc(-c2ccc(Cl)cc2Cl)n1`, for which the GI50 with DU-145 prostate was 5.33 µM; in the test on HCC-2998 colon, 7.19 µM; in the test on KM12 colon, 4.1 µM; in the test on MDA-MB-231 breast, 9.3 µM; with NCI-H226 lung, 18.1 µM; in the test on NCI-H23 lung it was 12.3 µM. The GI50 is 12.1 µM in the test with OVCAR-4 ovarian, 6.87 µM in the test on OVCAR-8 ovarian, 4.1 µM in the test on SR leukemia and 11.1 µM in the test with U251 CNS. The TGI was 70.1 µM with DU-145 prostate; 44 µM with HCC-2998 colon; 31.3 µM with KM12 colon; over 100 µM in the test with MDA-MB-231 breast; over 100 µM with NCI-H226 lung; over 100 µM with NCI-H23 lung. Moreover, the TGI is 89.7 µM in the test with OVCAR-4 ovarian, over 100 µM with OVCAR-8 ovarian, over 100 µM with SR leukemia and over 100 µM in the test on U251 CNS.

With `CC(=O)SC(C[N+](=O)[O-])c1ccccc1` (centres undefined), the TGI with DU-145 prostate was over 46.7 µM; with HCC-2998 colon, 10.6 µM; in the test on KM12 colon it was 22.6 µM; in the test with MDA-MB-231 breast, 27 µM; in the test on NCI-H226 lung, 5.72 µM; in the test with NCI-H23 lung, 38.3 µM. Further, the TGI in the test with OVCAR-4 ovarian came to 5.46 µM; with OVCAR-8 ovarian it was 26 µM; in the test on SR leukemia it was 6.85 µM; in the test with U251 CNS it was 13.1 µM.

On to `CN(Cc1cccc(Cl)c1)c1ccc(CO)c(Cl)c1`, for which the GI50 with DU-145 prostate was 21 µM; with HCC-2998 colon, 13.7 µM; in the test on KM12 colon it was 18.7 µM; in the test on MDA-MB-231 breast, 17.4 µM; in the test with NCI-H226 lung, 0.113 µM; with NCI-H23 lung it was 11.5 µM. The GI50 with OVCAR-4 ovarian was 2.33 µM; in the test on OVCAR-8 ovarian, 15.8 µM; in the test on SR leukemia, 22.4 µM; with U251 CNS, 4.21 µM. Further, the TGI in the test on DU-145 prostate is over 51.1 µM; with HCC-2998 colon it was 34.1 µM; in the test with KM12 colon it was 43.3 µM; with MDA-MB-231 breast, 59.9 µM; in the test with NCI-H226 lung, 0.284 µM; with NCI-H23 lung it was 46.1 µM. The TGI was 16.5 µM with OVCAR-4 ovarian, 53.8 µM in the test on OVCAR-8 ovarian, 72.8 µM in the test with SR leukemia and 19.2 µM with U251 CNS.

With `Nc1c2c(c(O)c3c1=C(CO)C=N3)=NCCS2=O` (centres undefined), the GI50 in the test with DU-145 prostate was 1.54 µM; in the test on HCC-2998 colon, 1.21 µM; in the test on KM12 colon, 1.7 µM; with MDA-MB-231 breast, 2.82 µM; in the test on NCI-H226 lung it was 1.79 µM; in the test on NCI-H23 lung, 0.615 µM. Also, the GI50 in the test on OVCAR-4 ovarian was 0.312 µM; with OVCAR-8 ovarian it was 1.99 µM; in the test on SR leukemia, 1.76 µM; in the test with U251 CNS it was 1.78 µM. Also, the TGI turned out to be 2.87 µM with DU-145 prostate; 2.81 µM with HCC-2998 colon; 10.6 µM with KM12 colon; 9.69 µM in the test on MDA-MB-231 breast; 4.17 µM in the test with NCI-H226 lung; 5.64 µM in the test on NCI-H23 lung. Also, the TGI in the test with OVCAR-4 ovarian was 1.22 µM; with OVCAR-8 ovarian it was 4.78 µM; in the test on SR leukemia it was 9.33 µM; in the test on U251 CNS it was 3.26 µM.

As to `O=c1c(-c2nc3ccccc3[nH]2)cc2ccccc2n1Cc1cn(Cc2ccc(F)cc2)nn1`, the GI50 in the test on DU-145 prostate was 0.143 µM; in the test on HCC-2998 colon, 0.203 µM; in the test with KM12 colon, 0.143 µM; in the test on MDA-MB-231 breast, 0.313 µM; in the test on NCI-H226 lung, 0.572 µM; in the test on NCI-H23 lung, 0.457 µM. Further, the GI50 with OVCAR-4 ovarian is 1.35 µM; with OVCAR-8 ovarian, 0.139 µM; in the test with SR leukemia, 0.0732 µM; with U251 CNS, 0.161 µM. The TGI was 1.05 µM in the test on DU-145 prostate; 3.31 µM in the test on HCC-2998 colon; over 41.5 µM with KM12 colon; 8.41 µM with MDA-MB-231 breast; over 100 µM in the test with NCI-H226 lung; 19 µM in the test with NCI-H23 lung. For the same compound, the TGI in the test with OVCAR-4 ovarian is over 100 µM; in the test with OVCAR-8 ovarian it was over 100 µM; in the test with SR leukemia it was over 100 µM; with U251 CNS, 12.4 µM.

In the case of `O=c1c(Br)ccc(Br)cc1Br`, the GI50 in the test with DU-145 prostate is 1.75 µM; in the test on HCC-2998 colon, 3.07 µM; with KM12 colon, 2.64 µM; in the test on MDA-MB-231 breast it was 1.99 µM; in the test with NCI-H226 lung, 2.94 µM; in the test on NCI-H23 lung it was 1.72 µM. Also, the GI50 in the test with OVCAR-4 ovarian is 2.47 µM; in the test with OVCAR-8 ovarian, 2.75 µM; in the test with SR leukemia, 0.367 µM; with U251 CNS, 1.84 µM. The TGI turned out to be 3.14 µM in the test on DU-145 prostate; 8.6 µM in the test with HCC-2998 colon; 6.36 µM with KM12 colon; 3.68 µM with MDA-MB-231 breast; 9.7 µM with NCI-H226 lung; 3.66 µM in the test on NCI-H23 lung. The TGI came out at 4.63 µM in the test on OVCAR-4 ovarian, 8.78 µM in the test on OVCAR-8 ovarian, 1.48 µM in the test on SR leukemia and 3.34 µM in the test on U251 CNS.

Take `COc1nc(C(Cl)(Cl)Cl)c(Cl)c(OC)c1Cl`: the TGI in the test with DU-145 prostate is 73.2 µM; in the test with HCC-2998 colon, > 58.3 µM and 95 µM; with KM12 colon, > 91 µM and 70.1 µM; in the test with MDA-MB-231 breast it was 72.5 µM; with NCI-H226 lung, 71.5 µM; with NCI-H23 lung it was > 31.6 µM and 79.4 µM. For the same compound, the TGI in the test with OVCAR-4 ovarian was 99.9 µM and 66.3 µM; with OVCAR-8 ovarian it was 55.6 µM; with SR leukemia, > 72.1 µM and 82.6 µM; in the test with U251 CNS it was 69.9 µM. In addition, the GI50 with KM12 colon is over 56.7 µM; with NCI-H23 lung it was over 31.6 µM; in the test on OVCAR-4 ovarian, over 52.1 µM; in the test on OVCAR-8 ovarian it was over 61.5 µM; with SR leukemia it was over 45.5 µM.

Regarding `CC(=O)O[C@H]1CC[C@@]2(C)[C@@H](CC[C@@H]3[C@@H]2CC(=O)[C@@]2(C)[C@H]3C[C@@H]3CC(C)=CC(=O)[C@@H]32)C1`, the TGI in the test on DU-145 prostate, in the test on HCC-2998 colon, in the test with KM12 colon, with MDA-MB-231 breast, in the test with NCI-H226 lung and with NCI-H23 lung was over 100 µM each time. Also, the TGI in the test on OVCAR-4 ovarian, with OVCAR-8 ovarian, in the test with SR leukemia and with U251 CNS was over 100 µM throughout.

As to `COc1ccc2c(c1)cn1c3ccc(OC)cc3[nH]c(=O)c21`, the GI50 in the test with DU-145 prostate was under 0.0217 µM; in the test with HCC-2998 colon, under 0.0188 µM; with KM12 colon, under 0.0187 µM; in the test on MDA-MB-231 breast it was under 0.0188 µM; with NCI-H226 lung, 0.059 µM; in the test with NCI-H23 lung it was under 0.0238 µM. In addition, the GI50 with OVCAR-4 ovarian is 0.0382 µM; in the test with OVCAR-8 ovarian, under 0.0214 µM; in the test on SR leukemia, under 0.01 µM; in the test with U251 CNS, under 0.0172 µM. Further, the TGI was determined as 0.0679 µM in the test with HCC-2998 colon; 0.247 µM with KM12 colon; 0.27 µM with MDA-MB-231 breast; 8.97 µM in the test on NCI-H226 lung; 0.934 µM in the test on NCI-H23 lung; 4.92 µM with OVCAR-4 ovarian. Also, the TGI with OVCAR-8 ovarian came to 1.46 µM; with SR leukemia, 1.1 µM; in the test with U251 CNS, 1.25 µM.
